Consider 18 compounds from US20020103111A1, “Inhibitors of MAdCAM-1-mediated interactions and methods of use therefor” (Millennium Pharmaceuticals, Inc., priority 1996, published 2002).

T1 sequence (P13612 34-1032, change not shown): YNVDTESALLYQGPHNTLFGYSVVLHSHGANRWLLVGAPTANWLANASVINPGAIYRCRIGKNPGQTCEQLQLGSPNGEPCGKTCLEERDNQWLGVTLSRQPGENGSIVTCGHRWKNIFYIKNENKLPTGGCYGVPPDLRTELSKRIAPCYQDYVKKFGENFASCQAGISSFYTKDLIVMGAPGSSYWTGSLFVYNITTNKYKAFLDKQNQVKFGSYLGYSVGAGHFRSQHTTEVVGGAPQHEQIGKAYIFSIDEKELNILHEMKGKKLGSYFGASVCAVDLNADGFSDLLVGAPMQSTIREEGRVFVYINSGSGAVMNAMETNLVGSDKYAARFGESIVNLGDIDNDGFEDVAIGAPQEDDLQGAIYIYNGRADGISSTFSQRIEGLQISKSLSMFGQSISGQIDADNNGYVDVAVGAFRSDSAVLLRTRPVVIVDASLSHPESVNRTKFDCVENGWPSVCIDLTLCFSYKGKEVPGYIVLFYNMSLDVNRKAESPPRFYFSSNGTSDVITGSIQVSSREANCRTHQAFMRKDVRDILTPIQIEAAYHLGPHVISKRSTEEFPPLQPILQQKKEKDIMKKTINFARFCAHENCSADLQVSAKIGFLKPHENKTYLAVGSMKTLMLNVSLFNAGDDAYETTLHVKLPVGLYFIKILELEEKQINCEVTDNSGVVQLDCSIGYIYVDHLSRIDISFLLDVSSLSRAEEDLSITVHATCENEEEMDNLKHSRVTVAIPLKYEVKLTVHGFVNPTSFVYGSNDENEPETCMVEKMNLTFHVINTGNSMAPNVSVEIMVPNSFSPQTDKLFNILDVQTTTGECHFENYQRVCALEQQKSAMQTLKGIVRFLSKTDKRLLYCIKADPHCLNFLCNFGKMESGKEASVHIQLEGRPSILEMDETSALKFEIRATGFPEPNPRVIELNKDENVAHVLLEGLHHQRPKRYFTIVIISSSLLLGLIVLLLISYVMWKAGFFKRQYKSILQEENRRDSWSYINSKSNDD
T1 sequence (P26010 20-798, change not shown): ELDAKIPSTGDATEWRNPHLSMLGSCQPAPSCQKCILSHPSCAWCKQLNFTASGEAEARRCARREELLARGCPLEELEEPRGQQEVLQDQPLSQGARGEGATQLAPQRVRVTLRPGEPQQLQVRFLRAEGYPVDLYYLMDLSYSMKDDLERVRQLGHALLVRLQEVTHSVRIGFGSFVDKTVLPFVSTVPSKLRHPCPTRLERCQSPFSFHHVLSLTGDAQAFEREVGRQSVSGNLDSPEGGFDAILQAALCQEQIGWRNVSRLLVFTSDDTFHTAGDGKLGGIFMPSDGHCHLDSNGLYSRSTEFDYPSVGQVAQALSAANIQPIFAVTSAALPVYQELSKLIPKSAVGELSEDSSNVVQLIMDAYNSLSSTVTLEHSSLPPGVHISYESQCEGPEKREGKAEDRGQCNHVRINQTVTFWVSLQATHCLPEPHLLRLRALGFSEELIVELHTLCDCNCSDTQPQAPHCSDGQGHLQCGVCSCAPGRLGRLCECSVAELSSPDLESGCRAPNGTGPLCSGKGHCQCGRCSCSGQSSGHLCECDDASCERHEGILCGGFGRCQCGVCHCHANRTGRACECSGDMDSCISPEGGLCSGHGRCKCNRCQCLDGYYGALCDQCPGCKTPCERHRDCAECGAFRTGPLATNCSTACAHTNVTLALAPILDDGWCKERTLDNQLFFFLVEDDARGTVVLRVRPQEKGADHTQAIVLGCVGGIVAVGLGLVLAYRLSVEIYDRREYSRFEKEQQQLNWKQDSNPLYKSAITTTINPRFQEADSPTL

The first assay has as its target T1, human MAdCAM-1 (huMAdCAM-1-Ig chimera); RPMI 8866 cells expressing α4β7 (Homo sapiens, UniProt P13612+P26010).
T1 construct: RPMI 8866 cells, a B cell lymphoma expressing α4β7; endogenous in cells; host or cells: RPMI 8866 cells (endogenous α4β7)
The assay can be described thus: huMAdCAM-1-Ig/RPMI 8866 Adhesion Assay. The class given is cell-based. Conditions: Table 6, R1-Leu-Asp-Thr, read-out: hMAdCAM IC50. As to the method: RPMI 8866 cells, a B cell lymphoma expressing α4β7 (a gift from D. Erle; Erle, D. J. et al., J. Immunol., 153:517-528 (1994); Shyjan et al., Journal of Immunology, 1996:2851 (1996) were fluorescently labeled (labeling protocol provided below) using BCECF (Molecular probes #B-1170). Cells were resuspended in an assay buffer consisting of Hanks Balanced Salt Solution (HBSS) supplemented with fetal calf serum (FCS) at a final concentration of 2%, HEPES, pH 7.3 at 25 mM. All reagents in this buffer were supplied from Gibco/BRL.
All assays were performed in 96 well strip well plates from Costar (E.I.A./R.I.A. Strip plate-8 Cat. #2581). […] The plates were incubated at 37° C. for one hour (or at 4° C. overnight) and washed once in the automatic plate washer (50 mM Tris HCl, 0.14 M NaCl and 2.0 mM MnCl2 at pH 7.2) (Bio-Tek EL 404 microplate autowasher). Wells were then blocked with PBS (phosphate buffered saline) and 10% FCS (100 μl/well) for one hour at 37° C. followed by the same wash step as described.
Cells were labeled with BCECF-AM (Molecular Probes, Cat. No. B-1170) at a concentration of 2 μl/ml to a cell suspension of 4×10^6 cells/ml in PBS. The cells were incubated in a 37° C. water bath for 30 minutes. Labeled cells were centrifuged at 700 RPM for 10 minutes, resuspended in assay buffer and the centrifugation step was repeated. The cells were resuspended at a final concentration of 2.5×10^6 cells/ml.
For assays, compounds were diluted as follows in a 96 well polypropylene plate. First, a stock solution of each compound was prepared by dissolving compound in 100% DMSO at 100X final concentration to be tested. 10 μl of the stock was added to 90 μl water for the first test dilution. 50 μl of the first test dilution was added to 50 μl of 10% DMSO in water for the second test dilution. 50 μl of the second test dilution was added to 50 μl of 10% DMSO in water for the third test dilution. 50 μof the third test dilution was added to 50 μl of 10% DMSO in water for the fourth test dilution, and so on, until six test dilutions were prepared.
A stock solution of SmM positive control peptide (L783-1A) was made in 100% DMSO, and subsequently diluted in water 1:10 (10 μl of 5 mM stock plus 90 μl of water) to yield a concentration of 0.5mM. This dilution was then further diluted 1:2 with 10% DMSO (50 μl of the compound and 50 μl of 10% DMSO) for a concentration of 250 μM. These 1:2 dilutions were continued serially until six dilutions were achieved. These dilutions represent 10X stocks as shown in the assay set up below:
The assay was set up by adding materials to huMAdCAM-1-Ig-coated plates as follows:
1) 130 μl/well of assay buffer
2) 20 μl/well of diluted compounds or 10% DMSO (control) or diluted positive control peptide.
3) 50 μl of ECECF-AM-labeled RPMI 8866 cells
The plates were wrapped in foil and incubated for 30 minutes at room temperature on a rotary shaker at 45 RPM.
Plates were washed twice (50 mM Tris HCl, […] and 2.0 mM MnCl2 at pH 7.2) on the microplate autowasher plate washer set as follows:
Plates were read in an IDEX fluoresecent plate reader set to excite at 485 nm and read at 535 nm.
Data was collected in microsoft excel in a format for automatic IC 50 determinations.
The IC50 is the concentration needed to halve the response being measured. With `CCCCCCOc1ccc(C(=O)N[C@@H](CC(C)C)C(=O)N[C@@H](CC(=O)O)C(=O)N[C@H](C(N)=O)[C@@H](C)O)cc1` [Table 6 example 1], the IC50 was determined as 580 nM. On to `CC(C)C[C@H](NC(=O)c1coc2ccccc2c1=O)C(=O)N[C@@H](CC(=O)O)C(=O)N[C@H](C(N)=O)[C@@H](C)O` [Table 6 example 2], for which the IC50 is 730 nM.

As to `CC(C)C[C@H](NC(=O)c1cccc(Cl)c1)C(=O)N[C@@H](CC(=O)O)C(=O)N[C@H](C(N)=O)[C@@H](C)O` [Table 6 example 3], the IC50 was found to be 1400 nM. Same read-out and setting: for `CC(C)C[C@H](NC(=O)c1ccc(C(C)(C)C)cc1)C(=O)N[C@@H](CC(=O)O)C(=O)N[C@H](C(N)=O)[C@@H](C)O` [Table 6 example 4] the value was 1100 nM.

As for `CC(C)C[C@H](NC(=O)c1sccc1Br)C(=O)N[C@@H](CC(=O)O)C(=O)N[C@H](C(N)=O)[C@@H](C)O` [Table 6 example 6], the IC50 is 2600 nM. On the same count and under the same terms, the figure for `CC(C)C[C@H](NC(=O)c1cccc(C(F)(F)F)c1)C(=O)N[C@@H](CC(=O)O)C(=O)N[C@H](C(N)=O)[C@@H](C)O` [Table 6 example 7] is 2800 nM; for `CC(C)C[C@H](NC(=O)c1cccc(F)c1F)C(=O)N[C@@H](CC(=O)O)C(=O)N[C@H](C(N)=O)[C@@H](C)O` [Table 6 example 8] it is 2000 nM. Still for that read-out and setting: for `Cc1nc(Cl)ccc1C(=O)N[C@@H](CC(C)C)C(=O)N[C@@H](CC(=O)O)C(=O)N[C@H](C(N)=O)[C@@H](C)O` [Table 6 example 9] the value was 1100 nM.

The same assay, now with this note: Table 7, R1-Leu-Asp-Thr-R2, read-out: hMAdCAM IC50.
In the case of `CC(C)C[C@H](NC(=O)c1cc2ccccc2cn1)C(=O)N[C@@H](CC(=O)O)C(=O)N[C@H](C(=O)N1CCc2ccccc2C1)[C@@H](C)O` [Table 7 example 1], the 50% inhibitory concentration (IC50) worked out at 780 nM.

Regarding `CC(C)C[C@H](NC(=O)c1cc2ccccc2cn1)C(=O)N[C@@H](CC(=O)O)C(=O)N[C@H](C(=O)N1CCC(C)OC1C)[C@@H](C)O` (stereo partly drawn) [Table 7 example 3], the IC50 was 970 nM. For the compound `CC(C)C[C@H](NC(=O)c1cc2ccccc2cn1)C(=O)N[C@@H](CC(=O)O)C(=O)N[C@H](C(=O)NCCC1=CCCCC1)[C@@H](C)O` [Table 7 example 4], the IC50 was 640 nM. As to `Cc1cccc(CNC(=O)[C@@H](NC(=O)[C@H](CC(=O)O)NC(=O)[C@H](CC(C)C)NC(=O)c2cc3ccccc3cn2)[C@@H](C)O)c1` [Table 7 example 5], the IC50 is 810 nM. For `CC(C)C[C@H](NC(=O)c1cc2ccccc2cn1)C(=O)N[C@@H](CC(=O)O)C(=O)N[C@H](C(=O)N[C@@H](C)c1cccc2ccccc12)[C@@H](C)O` [Table 7 example 6], the IC50 is 970 nM. Consider `CC(C)C[C@H](NC(=O)c1cc2ccccc2cn1)C(=O)N[C@@H](CC(=O)O)C(=O)N[C@H](C(=O)NC1CC1)[C@@H](C)O` [Table 7 example 7], for which the IC50 stood at 3800 nM. Same read-out and setting: the figure for `CC(C)C[C@H](NC(=O)c1cc2ccccc2cn1)C(=O)N[C@@H](CC(=O)O)C(=O)N[C@H](C(=O)NC1CCCCCCC1)[C@@H](C)O` [Table 7 example 8] is 1300 nM.

Regarding `CC(C)C[C@H](NC(=O)c1cc2ccccc2cn1)C(=O)N[C@@H](CC(=O)O)C(=O)N[C@H](C(=O)NCCO)[C@@H](C)O` [Table 7 example 9], the concentration for half-maximal inhibition (IC50) was determined as 1500 nM.

In the case of `CC(C)C[C@H](NC(=O)c1cc2ccccc2o1)C(=O)N[C@@H](CC(=O)O)C(=O)N[C@H](C(=O)NC1CCc2ccccc21)[C@@H](C)O` (stereo partly drawn) [Table 7 example 10], the half-inhibitory concentration (IC50) came out at 1500 nM.

The assay is the same for the next values; noted with them: read-out: hMAdCAM IC50, Table 7, R1-Leu-Asp-Thr-R2.
As to `CC(C)C[C@H](NC(=O)c1cc2ccccc2cn1)C(=O)N[C@@H](CC(=O)O)C(=O)N[C@H](C(=O)N1CCC(=O)CC1)[C@@H](C)O` [Table 7 example 2], the IC50 amounted to 940 nM.
